According to PubChem BioAssay AID375 (SRMLSC, 2006):

target: Pantothenate synthetase (Mycobacterium tuberculosis (strain ATCC 25618 / H37Rv)) (UniProt P9WIL5); test: Recombinant Mtb pantothenate synthetase (PanC) inhibitors, coupled enzyme, confirmatory (AID 375); conditions: coupled enzyme assay, measured here: PanC IC50 repeat trials
Sequence (P9WIL5 whole entry, looked up): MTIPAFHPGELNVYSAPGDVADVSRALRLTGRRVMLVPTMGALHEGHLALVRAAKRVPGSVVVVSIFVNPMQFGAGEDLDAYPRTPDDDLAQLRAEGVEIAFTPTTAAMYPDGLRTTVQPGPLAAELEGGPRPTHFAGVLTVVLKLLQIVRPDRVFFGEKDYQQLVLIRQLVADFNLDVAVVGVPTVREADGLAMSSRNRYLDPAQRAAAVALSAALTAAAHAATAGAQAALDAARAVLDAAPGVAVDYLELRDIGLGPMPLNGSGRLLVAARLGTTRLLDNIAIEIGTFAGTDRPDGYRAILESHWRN

SMILES | IC50
Cc1ccc(Cn2ccc(NC(=O)c3cc(-c4ccc(Cl)cc4)on3)n2)cc1 | > 100 µM
Cc1ccccc1Cn1nc(C)c(NC(=O)c2noc3c2CC(C(C)(C)C)CC3)c1C (stereo not drawn) | > 100 µM
COc1ccc2c(c1)CCc1c(C(=O)Nc3ccn(Cc4ccc(C)cc4)n3)noc1-2 | > 100 µM
Cc1ccc(Cn2ccc(NC(=O)c3cc(-c4ccco4)on3)n2)cc1 | > 100 µM
Cc1ccc(Cn2ccc(NC(=O)c3cc(-c4cccs4)on3)n2)cc1 | > 100 µM
COc1cccc(-c2cc(C(=O)Nc3cc(C)n(Cc4ccc(Cl)cc4)n3)no2)c1 | > 100 µM
Cc1ccccc1Cn1cc(NC(=O)c2noc3c2CC(C(C)(C)C)CC3)cn1 (stereo not drawn) | 2.56 µM
COc1ccccc1-c1cc(C(=O)Nc2cc(C)n(Cc3ccc(Cl)cc3)n2)no1 | > 100 µM
COc1ccc(OC)c(-c2cc(C(=O)Nc3cc(C)n(Cc4ccc(Cl)cc4)n3)no2)c1 | > 100 µM
Cc1cc(NC(=O)c2cc(-c3ccco3)on2)nn1Cc1ccc(Cl)cc1 | > 100 µM
COc1ccc(-c2cc(C(=O)Nc3cc(C)n(Cc4ccc(Cl)cc4)n3)no2)cc1OC | > 100 µM
Cc1ccc(Cn2ccc(NC(=O)c3noc4c3CCCC4)n2)cc1 | > 100 µM
Cc1cc(NC(=O)c2cc(-c3cccs3)on2)nn1Cc1ccc(Cl)cc1 | > 100 µM
Cc1ccc(Cn2ccc(NC(=O)c3cc(-c4ccc(Br)cc4)on3)n2)cc1 | > 100 µM
Cc1cc(NC(=O)c2noc3c2CCCCC3)nn1Cc1ccc(Cl)cc1 | > 100 µM
Cc1cc(C(=O)Nc2cc(C)n(Cc3ccc(Cl)cc3)n2)no1 | > 100 µM
CC(C)(C)C1CCc2onc(C(=O)Nc3cnn(Cc4ccc(F)cc4)c3)c2C1 (stereo not drawn) | 1.71 µM
Cc1cc(NC(=O)c2noc3c2CCCC3)nn1Cc1ccc(Cl)cc1 | > 100 µM
Cc1ccc(Cn2ccc(NC(=O)c3noc4c3CCCCC4)n2)cc1 | > 100 µM
COc1ccc2c(c1)CCc1c(C(=O)Nc3cc(C)n(Cc4ccc(Cl)cc4)n3)noc1-2 | > 100 µM
Cc1ccc(Cn2ccc(NC(=O)c3cc(-c4ccccc4)on3)n2)cc1 | > 100 µM
Cc1ccc(Cn2ccc(NC(=O)c3cc(-c4ccc(F)cc4)on3)n2)cc1 | > 100 µM
Cc1ccc(Cn2ccc(NC(=O)c3cc(-c4cccc(Cl)c4)on3)n2)cc1 | > 100 µM
